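Growth conditions: 96-well plates. Treatment: test compound, 48 hours, 5 concentrations. Analysis: linear interpolation between bracketing concentrations; unreached endpoints set to highest concentration. TGI marks complete inhibition of growth.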
Legend:
Test in all cases: NCI tumour cell line growth inhibition, 48 h
[1] = test system: NCI/ADR-RES ovarian
[2] = test system: 786-0 renal
[3] = test system: EKVX NSCLC
[4] = test system: MOLT-4 leukemia
[5] = test system: ACHN renal
[6] = test system: DMS 114 small cell lung
[7] = test system: LOX IMVI melanoma
[8] = test system: NCI-H23 lung
[9] = test system: OVCAR-4 ovarian
[10] = test system: COLO 205 colon
[11] = test system: SNB-75 CNS
[12] = test system: DU-145 prostate
[13] = test system: CAKI-1 renal
[14] = test system: DMS 273 small cell lung
[15] = test system: M19-MEL melanoma
[16] = test system: SW-620 colon
[17] = test system: MALME-3M melanoma
[18] = test system: MDA-MB-435
[19] = test system: XF 498 CNS
[20] = test system: OVCAR-5 ovarian
[21] = test system: SF-539 CNS
[22] = test system: LXFL 529 NSCLC
[23] = test system: KM20L2 colon
[24] = test system: SNB-19 CNS
[25] = test system: UACC-257 melanoma
[26] = test system: BT-549 breast
[27] = test system: SK-MEL-5 melanoma
[28] = test system: SK-MEL-2 melanoma
[29] = test system: SK-OV-3 ovarian
[30] = test system: TK-10 renal
[31] = test system: HT29 colon
[32] = test system: MCF7 breast
[33] = test system: HS 578T breast
[34] = test system: A498 renal
[35] = test system: KM12 colon
[36] = test system: DLD-1 colon
[37] = test system: K-562 leukemia
[38] = test system: HL-60(TB) leukemia
[39] = test system: SR leukemia
[40] = test system: NCI-H522 lung
[41] = test system: M14 melanoma
[42] = test system: SK-MEL-28 melanoma
[43] = test system: MDA-N
[44] = test system: A549 NSCLC
[45] = test system: SF-295 CNS
[46] = test system: U251 CNS
[47] = test system: HCC-2998 colon
[48] = test system: RPMI-8226 leukemia
[49] = test system: RXF-631 renal
[50] = test system: SN12C renal
[51] = test system: HOP-92 NSCLC
[52] = test system: T-47D breast
[53] = test system: CCRF-CEM leukemia
[54] = test system: RXF 393 renal
[55] = test system: OVCAR-3 ovarian
[56] = test system: NCI-H226 lung
[57] = test system: HOP-18 NSCLC
[58] = test system: MDA-MB-231 breast
[59] = test system: HOP-62 NSCLC
[60] = test system: UACC-62 melanoma
[61] = test system: IGROV1 ovarian
[62] = test system: SF-268 CNS
[63] = test system: UO-31 renal
[64] = test system: HCT-116 colon
[65] = test system: SNB-78 CNS
[66] = test system: OVCAR-8 ovarian
[67] = test system: NCI-H460 lung
[68] = test system: HCT-15 colon
[69] = test system: PC-3 prostate

CC(=O)N(O)CCCCCNC(=O)CCC(=O)N(O)CCCCCNC(=O)CCC(=O)N(O)CCCCCN
TGI [1]: > 100 µM | TGI [2]: > 100 µM | TGI [3]: > 100 µM | TGI [4]: > 82.8 µM | TGI [5]: > 100 µM | TGI [6]: > 100 µM | TGI [7]: > 100 µM | TGI [8]: > 100 µM | TGI [9]: > 100 µM | TGI [10]: > 100 µM | TGI [11]: > 100 µM | TGI [12]: > 60.1 µM | TGI [13]: > 100 µM | TGI [14]: > 100 µM | TGI [15]: > 100 µM | TGI [16]: > 100 µM | TGI [17]: > 100 µM | TGI [18]: > 100 µM | TGI [19]: > 100 µM | TGI [20]: 84 µM | TGI [21]: > 92.3 µM | TGI [22]: > 100 µM | TGI [23]: > 100 µM | TGI [24]: > 100 µM | TGI [25]: > 100 µM | TGI [26]: > 100 µM | TGI [27]: > 85.5 µM | TGI [28]: > 100 µM | TGI [29]: > 100 µM | TGI [30]: > 100 µM | TGI [31]: > 100 µM | TGI [32]: > 100 µM | TGI [33]: > 100 µM | TGI [34]: > 100 µM | TGI [35]: > 100 µM | TGI [36]: > 100 µM | TGI [37]: > 100 µM | TGI [38]: > 76.9 µM | TGI [39]: > 77.5 µM | TGI [40]: > 100 µM | TGI [41]: > 100 µM | TGI [42]: > 100 µM | TGI [43]: > 100 µM | TGI [44]: > 100 µM | TGI [45]: > 100 µM | TGI [46]: > 100 µM | TGI [47]: > 100 µM | TGI [48]: > 100 µM | TGI [49]: > 100 µM | TGI [50]: > 100 µM | TGI [51]: > 100 µM | TGI [52]: > 100 µM | TGI [53]: > 54.4 µM | TGI [54]: > 100 µM | TGI [55]: > 100 µM | TGI [56]: > 92.3 µM | TGI [57]: 83.2 µM | TGI [58]: > 100 µM | TGI [59]: > 100 µM | TGI [60]: > 100 µM | TGI [61]: > 100 µM | TGI [62]: > 100 µM | TGI [63]: > 100 µM | TGI [64]: > 100 µM | TGI [65]: > 100 µM | TGI [66]: > 100 µM | TGI [67]: > 54.9 µM | TGI [68]: > 100 µM | TGI [69]: > 100 µM

Reference: PubChem BioAssay (NCI)
